Consider 13 compounds from patent publication US20200317660A1, “Quinazolinone Compound and Application Thereof” (LUOXIN PHARMACEUTICAL (SHANGHAI) CO., LTD., priority 2017, published 2020).

For assay [1], the target named is T1, PI3Kα (Homo sapiens, UniProt P42336).
T1 construct: purchased Millipore 14-602-K
In words: In vitro test of enzyme activity (ADP-Glo lipokinase), PI3K alpha. It is filed as biochemical. The settings on record: 40 μM ATP, 50 μM PIP2:3PS, 120 min. The protocol: (§1) 1. In Vitro Test of Enzyme Activity
(§2) The lipokinase reaction was carried out under the conditions of a suitable substrate and ATP, followed by two steps to detect the kinase activity with the ADP-Glo™ kit. The first step was terminating the kinase reaction, wherein the remaining ATP was completely removed and only ADP was left; the second step was adding kinase detection reagents to convert ADP to ATP, accompanied by luciferin/luciferase reaction. Finally, the output value of fluorescence value was converted into kinase activity.
(§3) Experimental materials and equipments:
(§4) 2. Kit: ADP-Glo™ Lipokinase and PIP2:3PS Kit (Promega # V1792)
(§5) The kit contains: 1 mM PIP2:3PS, 10× lipid dilution buffer, 1 M magnesium chloride, 10 mM ATP, 10 mM ADP, ADP-Glo reagent, detection buffer and detection substrate.
(§6) 3. Reaction plate: OptiPlate-384, white and transparent (PerkinElmer #6007299).
(§7) 1. 10× reaction buffer: 500 mM HEPES, pH 7.5, 500 mM NaCl, 9 mM MgCl2; BSA: 10% stock solution, homemade.
(§8) 2. Final test system conditions: 1× reaction system: 50 mM HEPES, 50 mM NaCl, 3 mM MgCl2, 0.01% BSA (freshly prepared on the day of the experiment), 1% DMSO (v/v)+/−compound
(§9) 3. Reaction system: 3 μL mixture of the enzyme and the substrate (1:1)+2 μL ATP/MgCl2 mixture+5 μL ADP-Glo reagent+10 μL detection reagent.
(§10) The detailed experimental procedures are as follows:
(§11) 1. Compound dilution: 50 nL 100×compound/DMSO was transferred to the test well plate with Echo. • For PI3Kα, the compound was diluted three-fold from the highest concentration of 0.111 mM for a total of 10 concentrations. • For PI3Kβ/PI3Kδ/PI3Kγ, the compound was three-fold diluted from the highest concentration of 1.11 mM for a total of 10 concentrations.
(§12) (1) The compound to be tested was prepared and 50 nL of 100 plus compound solution or DMSO was added to the corresponding well plate.
(§13) (2) 3.33 plate reaction buffer was prepared.
(§14) (3) 3.33 solution PIP2:3PS was prepared, PIP2:3PS was thawed for at least 1 minute before use.
(§15) (4) 2.5 mM containing 5.25 mM MgCl2 was prepared.
(§16) (5) 3.33 PI3Kα/PI3Kβ/PI3Kδ/PI3Kγ solution was prepared.
(§17) (6) The lipokinase solution and the PIP2:3PS solution were mixed in a volume ratio of 1:1.
(§18) (7) 3.33: lipokinase buffer and PIP2:3PS solution were mixed in a volume ratio of 1:1.
(§19) (8) 3 μL of buffer solution and PIP2:3PS were added to the first and the second columns of the well plate.
(§20) (9) 3 μL of the mixed solution of the enzyme and PIP2:3PS was added to the wells except the first and the second columns, centrifuged for 10 seconds (1000 rpm) and incubated at 23° C. for 20 minutes.
(§21) (10) 2 μL […] was added and well was shaken.
(§22) (11) The well plate was covered and shaken for about 30 s, then the well plate was incubated at 23° C. for 2 hours.
(§23) (12) 5 μL of ADP-Glo reagent containing 10 mM MgCl2 was added.
(§24) (13) The well plate was centrifuged at 1000 rpm for 10 seconds, and the well plate was then covered, shaken for about 30 seconds, and incubated at 23° C. for 60 minutes.
(§25) (14) 10 μL kinase detection reagent was added.
(§26) (15) The well plate was centrifuged at 1000 rpm for 10 seconds, and then incubated at 23° C. for 60 minutes.
(§27) (16) The fluorescence value was measured on the Envision instrument.
For orientation: ADP-Glo turns the ADP formed in a reaction into a luminescent signal.

In assay [2] the test system is phosphorylation of PI3K downstream protein Akt in MCF7 cells. In words: In vitro test of cells activity: ELISA of Akt phosphorylation in MCF7 cells. It is filed as cell-based. The settings on record: 2 h compound, insulin 10 μg/mL stimulation, pAkt ELISA, read-out: MCF7 Cell IC50. The protocol: 2. In vitro test of cells activity
By the method of ELISA, the inhibition level of the test compound on the phosphorylation of PI3K downstream protein Akt in the signaling pathway was determined in MCF7 cells line to reflect the cells activity of the compound.
Cell culture medium: complete cell culture medium (RPMI 1640+10% serum+1% L-glutamine+1% double antibody)
Serum-free medium (without serum, RPMI 1640+1% L-glutamine+1% double antibody)
The detailed procedures areas follows:
(1) MCF7 cells (ATCC® HTB-22™) were inoculated into a 96-well plate at 100 μL of cell complete medium per well (2.5*10^4 cells per well), and the cells were incubated at 37° C. and 5% CO2 for 24 hours.
(2) The complete cell culture medium was replaced with 100 μL of serum-free medium, and incubated for starvation overnight.
(3) The compound was prepared (The initial concentration of the compound is 1 mM, which was subjected to a three-fold dilution in 10 concentrations, and the compound of each concentration was then diluted 100-fold with serum-free medium). 25 μL of the diluted compound was added to the cells orifice plate.
(4) The cells were incubated at 37° C. and 5% CO2 for 2 hours.
(5) The cells in the well plate were stimulated with 10 μg/mL insulin (Sigma # I9278-5 mL), incubated for 30 minutes, and then centrifuged at 1000 rpm for 5 minutes at room temperature.
(6) 250 μL of 1× balanced salt solution (Invitrogen, #14065-056, 4° C., containing 1 mM/L Na3VO4) was added to each well to wash the cells once.
(7) 100 μL of lysis buffer (trimethylolaminomethane hydrochloride, Invitrogen, #15567-1000 ml) was added to each well, shaken at 4° C. for 60 minutes, and then centrifuged at 4000 rpm for 4 minutes.
(8) The following procedures were carried out according to the instructions of ELISA kit (TGR BioSciences # EKT002).
For orientation: An ELISA detects its analyte on a solid surface through an enzyme-linked reagent.

The target in assay [3] is T2, PI3Kβ (Homo sapiens, UniProt P42338).
T2 construct: purchased Promega V1751
T2 sequence (P42338 whole entry): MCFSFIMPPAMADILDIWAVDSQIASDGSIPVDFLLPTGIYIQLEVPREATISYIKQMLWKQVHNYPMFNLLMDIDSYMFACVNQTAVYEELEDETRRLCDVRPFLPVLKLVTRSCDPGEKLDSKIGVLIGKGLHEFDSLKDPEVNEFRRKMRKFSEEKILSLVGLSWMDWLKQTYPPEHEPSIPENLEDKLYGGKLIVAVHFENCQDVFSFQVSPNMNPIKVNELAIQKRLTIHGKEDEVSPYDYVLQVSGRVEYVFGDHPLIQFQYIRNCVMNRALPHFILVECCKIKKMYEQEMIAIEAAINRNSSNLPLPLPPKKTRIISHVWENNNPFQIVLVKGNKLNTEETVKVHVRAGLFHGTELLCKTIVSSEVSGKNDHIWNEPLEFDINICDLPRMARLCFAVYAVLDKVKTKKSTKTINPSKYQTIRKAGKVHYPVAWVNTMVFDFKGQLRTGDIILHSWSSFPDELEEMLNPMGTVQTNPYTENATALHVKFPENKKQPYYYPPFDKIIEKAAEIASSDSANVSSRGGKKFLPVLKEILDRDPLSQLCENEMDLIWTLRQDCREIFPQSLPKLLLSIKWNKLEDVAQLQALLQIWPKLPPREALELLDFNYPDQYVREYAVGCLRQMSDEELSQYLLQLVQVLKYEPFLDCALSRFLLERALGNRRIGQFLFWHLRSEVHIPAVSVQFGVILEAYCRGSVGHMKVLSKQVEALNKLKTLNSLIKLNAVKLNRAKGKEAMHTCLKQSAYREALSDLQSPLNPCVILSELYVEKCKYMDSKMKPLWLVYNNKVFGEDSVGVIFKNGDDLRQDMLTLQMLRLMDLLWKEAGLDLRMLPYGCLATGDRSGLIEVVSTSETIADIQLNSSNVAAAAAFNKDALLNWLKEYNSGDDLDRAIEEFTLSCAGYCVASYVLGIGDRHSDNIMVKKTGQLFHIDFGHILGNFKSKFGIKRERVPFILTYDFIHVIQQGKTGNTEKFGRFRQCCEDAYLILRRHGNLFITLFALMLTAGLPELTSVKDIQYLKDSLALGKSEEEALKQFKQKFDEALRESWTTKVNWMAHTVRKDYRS
T2 sequence (P27986 whole entry partner): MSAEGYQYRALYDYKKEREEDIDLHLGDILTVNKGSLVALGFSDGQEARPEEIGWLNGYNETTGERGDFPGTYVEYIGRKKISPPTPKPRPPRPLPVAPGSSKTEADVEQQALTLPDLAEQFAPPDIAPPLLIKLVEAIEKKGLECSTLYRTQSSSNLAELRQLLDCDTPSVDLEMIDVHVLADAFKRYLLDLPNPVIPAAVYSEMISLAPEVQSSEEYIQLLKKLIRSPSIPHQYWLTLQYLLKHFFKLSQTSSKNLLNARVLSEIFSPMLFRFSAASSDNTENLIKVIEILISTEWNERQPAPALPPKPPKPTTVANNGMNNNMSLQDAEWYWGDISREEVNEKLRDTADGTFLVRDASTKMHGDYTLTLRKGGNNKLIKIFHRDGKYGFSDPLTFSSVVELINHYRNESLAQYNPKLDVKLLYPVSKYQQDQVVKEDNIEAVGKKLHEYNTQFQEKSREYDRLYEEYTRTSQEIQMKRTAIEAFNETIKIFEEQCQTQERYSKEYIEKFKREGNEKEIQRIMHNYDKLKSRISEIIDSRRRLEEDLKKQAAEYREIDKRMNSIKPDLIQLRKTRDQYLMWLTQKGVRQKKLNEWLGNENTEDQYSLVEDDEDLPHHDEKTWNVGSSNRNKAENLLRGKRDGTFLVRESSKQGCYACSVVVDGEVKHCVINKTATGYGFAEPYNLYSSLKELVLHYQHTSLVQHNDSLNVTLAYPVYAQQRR
Nature of the assay: In vitro test of enzyme activity (ADP-Glo lipokinase), PI3K beta. It is filed as biochemical. The following applies: 40 μM ATP, 50 μM PIP2:3PS, 120 min. The protocol: as §1, §2, §3, §4, §5, §6, §7, §8, §9, §10, §11, §12, §13, §14, §15, §16, §17, §18, §19, §20, §21, §22, §23, §24, §25, §26, §27

Assay [4] concerns the target T3, PI3Kγ (Homo sapiens, UniProt P48736).
T3 construct: purchased Millipore 14-558-K
Nature of the assay: In vitro test of enzyme activity (ADP-Glo lipokinase), PI3K gamma. The class given is biochemical. The following applies: 25 μM ATP, 50 μM PIP2:3PS, 120 min. The protocol:
as §1, §2, §3, §4, §5, §6, §7, §8, §9, §10, §11, §12, §13, §14, §15, §16, §17, §18, §19, §20, §21, §22, §23, §24, §25, §26, §27

Assay [5] has as its target T4, PI3Kδ (Homo sapiens, UniProt O00329).
T4 construct: purchased Millipore 14-604-K
Nature of the assay: In vitro test of enzyme activity (ADP-Glo lipokinase), PI3K delta. The class given is biochemical. The settings on record: 40 μM ATP, 50 μM PIP2:3PS, 120 min. The protocol:
as §1, §2, §3, §4, §5, §6, §7, §8, §9, §10, §11, §12, §13, §14, §15, §16, §17, §18, §19, §20, §21, §22, §23, §24, §25, §26, §27

Read-outs that look alike come from different tables or passages of the source.

T3 sequence (P48736 whole entry): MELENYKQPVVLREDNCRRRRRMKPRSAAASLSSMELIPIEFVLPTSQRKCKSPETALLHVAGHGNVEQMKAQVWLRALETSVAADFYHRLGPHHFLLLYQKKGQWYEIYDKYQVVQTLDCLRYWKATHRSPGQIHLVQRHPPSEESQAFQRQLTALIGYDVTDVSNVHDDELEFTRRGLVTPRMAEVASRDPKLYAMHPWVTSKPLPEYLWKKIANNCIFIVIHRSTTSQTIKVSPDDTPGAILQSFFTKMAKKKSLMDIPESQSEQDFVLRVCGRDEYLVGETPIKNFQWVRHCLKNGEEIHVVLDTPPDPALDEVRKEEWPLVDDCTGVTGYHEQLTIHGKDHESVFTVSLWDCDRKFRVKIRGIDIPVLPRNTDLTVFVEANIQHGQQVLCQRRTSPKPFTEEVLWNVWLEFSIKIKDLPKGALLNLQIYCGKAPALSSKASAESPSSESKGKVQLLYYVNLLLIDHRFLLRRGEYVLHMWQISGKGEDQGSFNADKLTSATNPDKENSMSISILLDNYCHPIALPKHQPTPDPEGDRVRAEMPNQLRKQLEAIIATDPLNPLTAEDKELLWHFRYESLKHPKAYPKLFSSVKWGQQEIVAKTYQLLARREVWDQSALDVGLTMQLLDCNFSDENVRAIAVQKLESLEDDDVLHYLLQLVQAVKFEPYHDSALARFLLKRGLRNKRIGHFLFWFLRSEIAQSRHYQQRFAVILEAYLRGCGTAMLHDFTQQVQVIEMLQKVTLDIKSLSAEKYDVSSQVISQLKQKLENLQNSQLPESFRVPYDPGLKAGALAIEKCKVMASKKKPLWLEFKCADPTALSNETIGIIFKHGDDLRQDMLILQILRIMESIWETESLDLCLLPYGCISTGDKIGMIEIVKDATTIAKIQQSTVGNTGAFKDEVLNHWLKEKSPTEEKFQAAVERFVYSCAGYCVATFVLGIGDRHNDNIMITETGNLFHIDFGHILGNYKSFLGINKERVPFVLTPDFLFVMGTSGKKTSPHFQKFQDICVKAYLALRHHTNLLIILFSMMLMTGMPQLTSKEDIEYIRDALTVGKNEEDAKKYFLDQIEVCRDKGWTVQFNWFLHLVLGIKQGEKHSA
T4 sequence (O00329 whole entry): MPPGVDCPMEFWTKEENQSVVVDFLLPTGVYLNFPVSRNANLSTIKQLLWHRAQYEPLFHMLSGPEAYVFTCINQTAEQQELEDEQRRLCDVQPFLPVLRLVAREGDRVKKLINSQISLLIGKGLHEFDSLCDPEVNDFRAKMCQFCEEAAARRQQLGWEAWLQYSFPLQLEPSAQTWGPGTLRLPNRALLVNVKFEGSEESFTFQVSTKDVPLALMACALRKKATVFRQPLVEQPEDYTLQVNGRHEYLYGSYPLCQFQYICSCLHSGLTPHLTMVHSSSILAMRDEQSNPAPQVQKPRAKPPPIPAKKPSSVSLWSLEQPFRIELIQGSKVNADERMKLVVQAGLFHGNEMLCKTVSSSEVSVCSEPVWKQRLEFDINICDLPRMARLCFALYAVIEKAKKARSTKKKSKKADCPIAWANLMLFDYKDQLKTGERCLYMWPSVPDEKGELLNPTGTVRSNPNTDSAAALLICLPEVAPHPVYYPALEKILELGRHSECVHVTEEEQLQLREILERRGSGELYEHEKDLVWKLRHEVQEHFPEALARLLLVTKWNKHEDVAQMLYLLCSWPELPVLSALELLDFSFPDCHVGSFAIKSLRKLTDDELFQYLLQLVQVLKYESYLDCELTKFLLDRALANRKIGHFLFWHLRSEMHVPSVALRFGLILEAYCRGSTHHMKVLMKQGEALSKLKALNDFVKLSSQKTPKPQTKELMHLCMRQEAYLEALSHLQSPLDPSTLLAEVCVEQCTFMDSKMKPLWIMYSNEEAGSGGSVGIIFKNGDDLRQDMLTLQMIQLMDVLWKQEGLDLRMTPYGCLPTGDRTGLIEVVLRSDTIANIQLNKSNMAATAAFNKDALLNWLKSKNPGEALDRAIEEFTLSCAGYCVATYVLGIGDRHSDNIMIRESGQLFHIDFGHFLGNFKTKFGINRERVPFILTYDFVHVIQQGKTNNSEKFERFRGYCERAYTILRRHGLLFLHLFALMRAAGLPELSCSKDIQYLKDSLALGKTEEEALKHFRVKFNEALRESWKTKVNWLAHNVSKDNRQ
T4 sequence (P27986 whole entry partner): as the sequence (P27986 whole entry partner) above
T1 sequence (P42336 whole entry): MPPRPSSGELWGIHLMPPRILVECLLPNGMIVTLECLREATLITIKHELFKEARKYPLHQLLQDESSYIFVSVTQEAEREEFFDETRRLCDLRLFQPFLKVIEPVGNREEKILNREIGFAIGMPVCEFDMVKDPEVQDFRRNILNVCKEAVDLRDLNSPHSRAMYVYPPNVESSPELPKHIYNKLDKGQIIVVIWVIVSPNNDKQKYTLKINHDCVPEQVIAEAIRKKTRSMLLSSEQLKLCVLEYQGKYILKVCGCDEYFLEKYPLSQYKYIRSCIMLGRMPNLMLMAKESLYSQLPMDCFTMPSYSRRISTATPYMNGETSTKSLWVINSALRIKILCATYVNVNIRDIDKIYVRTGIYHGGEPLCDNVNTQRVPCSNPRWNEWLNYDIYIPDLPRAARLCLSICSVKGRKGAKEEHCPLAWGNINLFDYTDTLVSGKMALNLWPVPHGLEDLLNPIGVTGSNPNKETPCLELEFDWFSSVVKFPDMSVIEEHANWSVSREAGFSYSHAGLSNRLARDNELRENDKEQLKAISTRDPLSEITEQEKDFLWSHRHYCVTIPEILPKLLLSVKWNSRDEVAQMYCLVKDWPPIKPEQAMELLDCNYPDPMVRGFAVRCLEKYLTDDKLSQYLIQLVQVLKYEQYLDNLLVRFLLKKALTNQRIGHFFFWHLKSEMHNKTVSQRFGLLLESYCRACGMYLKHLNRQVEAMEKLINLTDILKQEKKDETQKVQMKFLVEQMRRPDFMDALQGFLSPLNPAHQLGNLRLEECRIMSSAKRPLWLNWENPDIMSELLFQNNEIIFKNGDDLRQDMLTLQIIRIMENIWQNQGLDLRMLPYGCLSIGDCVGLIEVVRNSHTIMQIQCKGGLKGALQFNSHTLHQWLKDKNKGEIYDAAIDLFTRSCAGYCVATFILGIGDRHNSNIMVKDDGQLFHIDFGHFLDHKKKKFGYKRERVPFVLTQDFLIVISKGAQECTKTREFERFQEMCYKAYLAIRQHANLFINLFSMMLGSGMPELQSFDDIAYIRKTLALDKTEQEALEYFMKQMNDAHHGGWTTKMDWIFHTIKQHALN
T1 sequence (P27986 whole entry partner): as the sequence (P27986 whole entry partner) above

As a reminder, the IC50 is the point on the concentration scale where inhibition reaches its midpoint. Turning to `CNC(=O)C(C)Cn1cnc2ccc(-c3cnc(OC(F)(F)F)c(NS(=O)(=O)c4ccc(F)cc4Cl)c3)cc2c1=O` (centres unmarked) [WX127], the IC50 was 22.8 nM in assay [1]; more than 1000 nM in assay [2] (Homo sapiens, MCF7, 2 h); 2160 nM in assay [3].
As for `COc1ncc(-c2ccc3ncn(CC(C)C(=O)O)c(=O)c3c2)cc1NS(=O)(=O)c1ccc(F)cc1Cl` (single isomer, unassigned) [R002, reference compound], the IC50 was 13.6 nM in assay [1]; 20.4 nM in assay [4]; 628 nM in assay [2]; 1060 nM in assay [3]; 122 nM in assay [5].
With `Cc1nc(C)c(S(=O)(=O)Nc2cc(-c3ccc4ncn(CCCC(=O)NC(C)C)c(=O)c4c3)cnc2C)s1` [WX006], the IC50 in assay [1] amounted to 1 nM; in assay [4] it was 19.6 nM; in assay [2] (Homo sapiens, MCF7, 2 h) it was 279 nM; in assay [3], 279 nM; in assay [5], 4.53 nM.
As for `CNC(=O)[C@H]1C[C@H](n2cnc3ccc(-c4cnc(C)c(NS(=O)(=O)c5ccc(F)cc5Cl)c4)cc3c2=O)C1` [WX013], the IC50 stood at 1.22 nM in assay [1]; 15.2 nM in assay [4]; 209 nM in assay [2] (Homo sapiens, MCF7, 2 h); 95.9 nM in assay [3]; 5.25 nM in assay [5].
As to `CNC(=O)[C@@H](C)Cn1cnc2ccc(-c3cnc(OC)c(NS(=O)(=O)c4cc(F)cc(F)c4)c3)cc2c1=O` [WX192], the IC50 in assay [1] came to 5.39 nM; in assay [4], 37.8 nM; in assay [2], 53.6 nM; in assay [3] it was 633 nM; in assay [5], 37.5 nM.
For `COc1ncc(-c2ccc3ncn(CC(C)C(N)=O)c(=O)c3c2)cc1NS(=O)(=O)c1sc(C)nc1C` (single isomer, unassigned) [WX024], in that order: 0.29 nM, 2.03 nM, 71.5 nM, 19.9 nM and 0.47 nM.
For `CNC(=O)C(C)Cn1cnc2ccc(-c3cnc(OC)c(NS(=O)(=O)c4ccc(C)cc4C)c3)cc2c1=O` (single isomer, unassigned) [WX091], in that order: 5.11 nM, 97.3 nM, 5.7 nM, 537 nM and 26.2 nM.
Consider `COc1ncc(-c2ccc3ncn(CC4(C(N)=O)CC4)c(=O)c3c2)cc1NS(=O)(=O)c1ccc(F)cc1Cl` [WX023], for which the IC50 amounted to 5.71 nM in assay [1]; 20.6 nM in assay [4]; 39.9 nM in assay [2] (Homo sapiens, MCF7, 2 h); 82.4 nM in assay [3]; 2.02 nM in assay [5].
As to `CCC(Cn1cnc2ccc(-c3cnc(OC)c(NS(=O)(=O)c4ccc(F)cc4Cl)c3)cc2c1=O)C(=O)NC` (single isomer, unassigned) [WX108], the IC50 in assay [1] was 13.9 nM; in assay [2], 96.5 nM; in assay [3] it was 415 nM.
Take `CCC(Cn1cnc2ccc(-c3cnc(OC)c(NS(=O)(=O)c4ccc(F)cc4Cl)c3)cc2c1=O)C(N)=O` (centres unmarked) [WX021]: the IC50 was determined as 6.89 nM in assay [1]; 52.3 nM in assay [2] (Homo sapiens, MCF7, 2 h); 133 nM in assay [3].
With `COc1ncc(-c2ccc3ncn(CC(C(N)=O)C(C)C)c(=O)c3c2)cc1NS(=O)(=O)c1ccc(F)cc1Cl` (centres unmarked) [WX022], the IC50 was found to be 25.5 nM in assay [1]; 125 nM in assay [2] (Homo sapiens, MCF7, 2 h); 832 nM in assay [3].
As to `CCC(Cn1cnc2ccc(-c3cnc(OC)c(NS(=O)(=O)c4ccc(F)cc4Cl)c3)cc2c1=O)C(=O)NC` (single isomer, unassigned) [WX107], the IC50 in assay [1] was 18.1 nM; in assay [2] it was 302 nM; in assay [3], 1850 nM.
Consider `CNC(=O)[C@@H]1CCC[C@H]1Cn1cnc2ccc(-c3cnc(OC)c(NS(=O)(=O)c4ccc(F)cc4Cl)c3)cc2c1=O` (single isomer, unassigned) [WX196], for which the IC50 worked out at 41 nM in assay [1], 395 nM in assay [2] and 1770 nM in assay [3].
